Assay results as given in PMC10265664, “Peptide Antibiotic–Polyphosphate Nanoparticles: A Promising Strategy to Overcome the Enzymatic and Mucus Barrier of the Intestine” (Biomacromolecules, 2023).
Where two headings read alike, the source gives them in different places.

Columns and labels:
[1] = tested on: lipase from porcine pancreas; assay: Degradation study with lipase; assay type: in vitro ADME; conditions: porcine pancreatic lipase, 37 °C, sampling 0-24 h, absorbance 210 nm, mean n = 3
Experimental: Enzymatic degradation of free PMB and PMB being incorporated into NPs was evaluated with lipase. Lipase solution was prepared by dissolving 0.5 g of the enzyme in 10 mL of digestion medium (2 mM Tris buffer with 5 mM CaCl2 and 150 mM NaCl). After homogenization for 10 min, the enzyme mixture was centrifuged at 12,000 rpm (Sigma 3-18KS, Austria) for 15 min at 4 °C.[17] Thereafter, 2 mL of the supernatant liquid was added to 4 mL of 0.01% (m/v) PMB–PP NPs suspension and incubated at 37 °C under constant shaking using a ThermoMixer (Eppendorf, Hamburg, Germany). Aliquots of 100 μL were withdrawn at predetermined time points (0, 1, 2, 4, 6, 12, and 24 h) and transferred to a 96-well microplate (μClear 96-well plates, Greiner bio-one, Austria). PMB–PP NPs and PMB suspension without lipase served as negative control and were incubated under the same conditions. […] The same settings were applied for PMB. The PMB concentration was determined using a calibration curve with increasing concentrations of PMB ranging from 0.78 to 50 μM.
Degradation was evaluated by quantifying the % remaining amount of PMB by the following equation: [drawing 3]

[2] = cited from earlier work
Text: The ionic strength of the polycation plays also an important role in the formation of such particles. […] PMB–PP NPs could therefore be formed.

[3] = tested on: 50 multidrug-resistant Gram-negative bacterial strains; design: method as in PMID 33045992; conditions: cited from earlier work

Substance: Polymyxin B sulfate [PMB]
- PMB degraded after lipase exposure [1]: 39.32%
- isoelectric point [2]: 10.74
- MICs (minimum inhibitory concentrations) ([3]; 44 of 50 multidrug-resistant Gram-negative bacterial strains): ≥ 4 µg/mL
- MICs (minimum inhibitory concentrations) ([3]; the other 6 of 50 multidrug-resistant Gram-negative bacterial strains): 2 µg/mL
